{
  "source": "ChEMBL document CHEMBL4330126",
  "about": "(2019)",
  "key": {"RAW264.7 [1]": {"test_system": "RAW264.7", "assay": "Anti-inflammatory activity in mouse RAW264.7 cells assessed as inhibition of LPS-induced iNOS level at 10^-3 M by Western blot analysis", "format": "functional, cell-based"}, "RAW264.7 [2]": {"test_system": "RAW264.7", "assay": "Antiinflammatory activity in mouse RAW264.7 cells assessed as decrease in LPS-induced IL-6 level at 10^-3 M by ELISA", "format": "functional", "set-up": "scale not given: the % may be the effect or the level left"}, "RAW264.7 [3]": {"test_system": "RAW264.7", "assay": "Antiinflammatory activity in mouse RAW264.7 cells assessed as decrease in LPS-induced IL-1beta level at 10^-3 M by ELISA", "format": "functional", "set-up": "scale not given: the % may be the effect or the level left"}, "RAW264.7 [4]": {"test_system": "RAW264.7", "assay": "Inhibition of LPS-induced morphological changes in mouse RAW264.7 cells at 0.5 x 10^-3 to 10^-3 M after 24 hrs by […] fluorescence microscopy", "format": "functional, cell-based"}, "RAW264.7 [5]": {"test_system": "RAW264.7", "assay": "Anti-inflammatory activity in mouse RAW264.7 cells assessed as inhibition of LPS-induced IL-6 mRNA expression at 10^-3 M after 24 hrs by qRT-PCR analysis", "format": "functional", "conditions": "RAW264.7, 24 h"}, "RAW264.7 [6]": {"test_system": "RAW264.7", "assay": "Anti-inflammatory activity in mouse RAW264.7 cells assessed as inhibition of LPS-induced TNF-alpha mRNA expression at 10^-3 M after 24 hrs by qRT-PCR analysis", "format": "functional", "conditions": "RAW264.7, 24 h"}, "RAW264.7 [7]": {"test_system": "RAW264.7", "assay": "Inhibition of LPS-stimulated NFkappaB/MAPK signaling activation in mouse RAW264.7 cells assessed as decrease in phosphorylated c-Jun protein level at 0.5 x 10^-3 to 10^-3 M after 24 hrs by Western blot analysis", "format": "cell-based"}, "RAW264.7 [8]": {"test_system": "RAW264.7", "assay": "Antiinflammatory activity against mouse RAW264.7 cells assessed as inhibition of LPS-induced nitric oxide production after 24 hrs by Griess assay", "format": "functional, cell-based"}, "RAW264.7 [9]": {"test_system": "RAW264.7", "assay": "Inhibition of LPS-stimulated NFkappaB/MAPK signaling activation in mouse RAW264.7 cells assessed as decrease in phosphorylated IKK protein level level after 24 hrs by Western blot analysis", "format": "cell-based"}, "RAW264.7 [10]": {"test_system": "RAW264.7", "assay": "Inhibition of LPS-induced ROS generation in mouse RAW264.7 cells at 0.5 x 10^-3 to 10^-3 M after 24 hrs by DCFDA staining-based fluorescence microscopy", "format": "functional, cell-based"}, "RAW264.7 [11]": {"test_system": "RAW264.7", "assay": "Antiinflammatory activity in mouse RAW264.7 cells assessed as decrease in LPS-induced IL-8 level at 10^-3 M by ELISA", "format": "functional", "set-up": "scale not given: the % may be the effect or the level left"}, "RAW264.7 [12]": {"test_system": "RAW264.7", "assay": "Anti-inflammatory activity in mouse RAW264.7 cells assessed as inhibition of LPS-induced iNOS mRNA expression at 10^-3 M by qRT-PCR analysis", "format": "functional, cell-based"}, "RAW264.7 [13]": {"test_system": "RAW264.7", "assay": "Inhibition of LPS-induced JNK-phosphorylation in mouse RAW264.7 cells at 0.5 x 10^-3 to 10^-3 M after 24 hrs by Western blot analysis", "format": "cell-based"}, "[14]": {"target": "Mitogen-activated protein kinase 1 and 3 (ERK2 and ERK1) (Mus musculus) (UniProt P63085+Q63844)", "sequence (P63085 whole entry, looked up)": "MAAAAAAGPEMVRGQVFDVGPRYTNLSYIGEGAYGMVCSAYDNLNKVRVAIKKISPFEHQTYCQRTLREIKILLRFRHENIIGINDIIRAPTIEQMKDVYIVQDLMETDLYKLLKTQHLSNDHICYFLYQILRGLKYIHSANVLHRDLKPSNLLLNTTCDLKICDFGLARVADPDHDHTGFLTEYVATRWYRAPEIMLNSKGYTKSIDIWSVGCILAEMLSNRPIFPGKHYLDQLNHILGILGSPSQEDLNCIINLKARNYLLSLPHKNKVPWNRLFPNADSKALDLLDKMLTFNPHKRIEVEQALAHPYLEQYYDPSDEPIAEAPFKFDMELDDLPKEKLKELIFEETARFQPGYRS", "sequence (Q63844 whole entry, looked up)": "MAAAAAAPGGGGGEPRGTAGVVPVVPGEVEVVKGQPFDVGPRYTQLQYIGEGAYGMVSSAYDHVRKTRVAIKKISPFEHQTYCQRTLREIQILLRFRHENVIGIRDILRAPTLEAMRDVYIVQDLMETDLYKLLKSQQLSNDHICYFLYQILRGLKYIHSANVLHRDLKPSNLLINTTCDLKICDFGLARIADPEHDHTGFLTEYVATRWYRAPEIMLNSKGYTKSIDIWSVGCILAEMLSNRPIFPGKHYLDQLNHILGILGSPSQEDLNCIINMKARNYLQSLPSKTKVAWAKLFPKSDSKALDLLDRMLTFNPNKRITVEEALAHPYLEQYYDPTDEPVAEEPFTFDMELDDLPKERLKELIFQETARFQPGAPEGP", "assay": "Inhibition of LPS-induced ERK-1/2 phosphorylation in mouse RAW264.7 cells at 0.5 x 10^-3 to 10^-3 M after 24 hrs by Western blot analysis", "format": "cell-based"}, "RAW264.7 [15]": {"test_system": "RAW264.7", "assay": "Inhibition of LPS-stimulated NFkappaB/MAPK signaling activation in mouse RAW264.7 cells assessed as decrease in JunB protein level at 0.5 x 10^-3 to 10^-3 M after 24 hrs by Western blot analysis", "format": "cell-based"}, "RAW264.7 [16]": {"test_system": "RAW264.7", "assay": "Anti-inflammatory activity in mouse RAW264.7 cells assessed as inhibition of LPS-induced IL-1beta mRNA expression at 10^-3 M after 24 hrs by qRT-PCR analysis", "format": "functional", "conditions": "RAW264.7, 24 h"}, "RAW264.7 [17]": {"test_system": "RAW264.7", "assay": "Anti-inflammatory activity in mouse RAW264.7 cells assessed as inhibition of LPS-induced IL-8 mRNA expression at 10^-3 M after 24 hrs by qRT-PCR analysis", "format": "functional", "conditions": "RAW264.7, 24 h"}, "[18]": {"target": "MAP kinase p38 (Mus musculus) (UniProt P47811+O08911+Q9WUI1+Q9Z1B7)", "assay": "Inhibition of LPS-induced p38 phosphorylation in mouse RAW264.7 cells at 0.5 x 10^-3 to 10^-3 M after 24 hrs by Western blot analysis", "format": "cell-based"}, "RAW264.7 [19]": {"test_system": "RAW264.7", "assay": "Inhibition of LPS-stimulated NFkappaB/MAPK signaling activation in mouse RAW264.7 cells assessed as increase in IkappaB protein level after 24 hrs by Western blot analysis", "format": "cell-based"}, "RAW264.7 [20]": {"test_system": "RAW264.7", "assay": "Inhibition of LPS-induced ROS generation in mouse RAW264.7 cells at 0.5 x 10^-3 to 10^-3 M after 24 hrs by DCFDA staining-based flow cytometric analysis", "format": "functional, cell-based"}, "RAW264.7 [21]": {"test_system": "RAW264.7", "assay": "Antiinflammatory activity in mouse RAW264.7 cells assessed as decrease in LPS-induced TNF-alpha level at 10^-3 M by ELISA", "format": "functional", "set-up": "scale not given: the % may be the effect or the level left"}},
  "note": "Calls of active or inactive are those of the source. The rule behind the calls is not given here.",
  "data": [
    {"smiles": "CC1(C)[C@@H](O[C@H]2O[C@H](C(=O)[O-])[C@@H](O)[C@H](O)[C@H]2O[C@@H]2O[C@H](C(=O)[O-])[C@@H](O)[C@H](O)[C@H]2O)CC[C@]2(C)[C@H]3C(=O)C=C4[C@@H]5C[C@@](C)(C(=O)O)CC[C@]5(C)CC[C@@]4(C)[C@]3(C)CC[C@@H]12.O.O.O.O.[Mg+2]", "values": [
      {"measurement": "inhibition", "setting": "RAW264.7 [1]", "value": "Active"},
      {"measurement": "Activity", "setting": "RAW264.7 [2]", "value": 28.7, "unit": "%"},
      {"measurement": "Activity", "setting": "RAW264.7 [3]", "value": 33.6, "unit": "%"},
      {"measurement": "inhibition", "setting": "RAW264.7 [4]", "value": "Active"},
      {"measurement": "inhibition at 1000 µM", "setting": "RAW264.7 [5]", "value": 46.2, "unit": "%"},
      {"measurement": "inhibition at 1000 µM", "setting": "RAW264.7 [6]", "value": 48.6, "unit": "%"},
      {"measurement": "inhibition", "setting": "RAW264.7 [7]", "value": "Active"},
      {"measurement": "inhibition", "setting": "RAW264.7 [8]", "value": "Dose-dependent effect"},
      {"measurement": "inhibition", "setting": "RAW264.7 [9]", "value": "Dose-dependent effect"},
      {"measurement": "inhibition", "setting": "RAW264.7 [10]", "value": "Active"},
      {"measurement": "Activity", "setting": "RAW264.7 [11]", "value": 49.3, "unit": "%"},
      {"measurement": "inhibition", "setting": "RAW264.7 [12]", "value": "Active"},
      {"measurement": "inhibition", "setting": "RAW264.7 [13]", "value": "Active"},
      {"measurement": "inhibition", "setting": "[14]", "value": "Active"},
      {"measurement": "inhibition", "setting": "RAW264.7 [15]", "value": "Active"},
      {"measurement": "inhibition at 1000 µM", "setting": "RAW264.7 [16]", "value": 61.7, "unit": "%"},
      {"measurement": "inhibition at 1000 µM", "setting": "RAW264.7 [17]", "value": 88.4, "unit": "%"},
      {"measurement": "inhibition", "setting": "[18]", "value": "Active"},
      {"measurement": "inhibition", "setting": "RAW264.7 [19]", "value": "Dose-dependent effect"},
      {"measurement": "inhibition", "setting": "RAW264.7 [20]", "value": "Active"},
      {"measurement": "Activity", "setting": "RAW264.7 [21]", "value": 17.3, "unit": "%"}
    ]}
  ]
}
